The text below walks through data of patent US20220175781A1, “CD40L COMPOSITIONS AND METHODS FOR TUNABLE REGULATION” (Obsidian Therapeutics, Inc., priority 2019, published 2022).

Data set [1] concerns T cells (CD4 and CD8 positive). The experiment in a line: Bazedoxifene dose response, CD40L MFI in CD4 and CD8 positive T cells (day 4, freeze/thaw, restimulation). Format: cell-based. Conditions: T cells, Bazedoxifene dose response. On the procedure:
Dose response with Bazedoxifene in T cells were conducted for OT-001966, OT-001967, OT-001666. Expression of CD40L was measured at (a) day 4 after transduction, (b) after freezing and thawing the cells or (c) after freezing and thawing the cells followed by restimulation with CD3/CD28 beads. The CD40L MFI (median fluorescence intensity) within CD4 and CD8 positive subpopulations is shown in Table 34 and Table 35 respectively.

The subject of data set [2] is T cells (CD4+ and CD8+ subsets). The experiment in a line: Vardenafil dose response of CD40L surface expression in T cells, CD4+ and CD8+ subsets. In kind it is cell-based. Set-up: key to SR: ratio of CD40L expression with vardenafil to expression without it. Conditions: OT-001892 transduced T cells. As for the experimental part: T cells were transduced with 10 μL of lentivirus corresponding to OT-001892. 4 days after transduction, cells were treated with increasing concentrations of ligand (Vardenafil) or vehicle control for 24 hours. Surface expression of CD40L in T cells as well as the CD4+ and CD8+ subsets was analyzed by FACS. The stabilization ratio (SR) may be defined as the ratio of expression, CD40L in response to vardenafil to the expression of CD40L in the absence of vardenafil.

The target in data set [3] is CD40 (UniProt P25942). The data set can be described thus: cell-based or functional assay.
Data set [4] relates to T cells. The data set can be described thus: Dose response of TMP, Bazedoxifene or Raloxifene, % CD40L positive T cells. As to conditions: T cells expressing OT-001666. In kind it is cell-based. As for the experimental part:
T cells were transduced with OT-001662 or OT-001666. On day 4, cells were treated with increasing doses of TMP for T cells expressing OT-001662. Cells expressing OT-001666 were treated either with increasing concentrations of Bazedoxifene or Raloxifene. The data are shown in Table 30 as the percentage of CD40L positive T cells.

Data set [5] concerns T cells (CD4 and CD8). The data set can be described thus: Cleavage resistant CD40L expression and TMP regulation in T cells. In kind it is cell-based. As to conditions: T cells, 10 μM TMP 24 hours, CD4 and CD8 populations. As for the experimental part: T cells were transduced with OT-001668 and on day 4, the percentage of CD40L expressing T cells (within the both CD4 and CD8) subpopulations was calculated.
T cells were transduced with ecDHFR regulated construct OT-001671 that include a CD40L protein that was resistant to cleavage. On day 4 cells were treated with 10 μM TMP for 24 hours. […] In an independent experiment, T cells transduced with varying volumes of virus corresponding to OT-001671 were treated with increasing doses of TMP for 24 hours. In Table 41, 0.5 μL, 2 μL, and 10 μL indicate the different volumes of virus that were used.

Setting [6] is: All Cells, Vardenafil 0.0001 μM.
Where [7] appears, read: CD4+ Cells, Vardenafil 0.0001 μM.
Setting [8] is: CD4+ Cells, Vardenafil 0.001 μM.
Where [9] appears, read: CD8+ Cells, Vardenafil 0.0001 μM.
Where [10] appears, read: CD8+ Cells, Vardenafil 0.001 μM.

Chain of CD40 (P25942 21-277 limits assumed): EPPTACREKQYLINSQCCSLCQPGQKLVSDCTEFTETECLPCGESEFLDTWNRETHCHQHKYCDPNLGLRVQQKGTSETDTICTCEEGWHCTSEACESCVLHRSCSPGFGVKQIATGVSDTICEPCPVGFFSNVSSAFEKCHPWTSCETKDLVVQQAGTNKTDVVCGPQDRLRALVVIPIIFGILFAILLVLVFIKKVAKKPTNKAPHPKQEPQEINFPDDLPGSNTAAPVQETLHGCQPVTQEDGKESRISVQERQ

With `Cc1c(-c2ccc(O)cc2)n(Cc2ccc(OCCN3CCCCCC3)cc2)c2ccc(O)cc12` [Bazedoxifene, reference compound], in data set [1], the cell health result was “affected cell health at highest dose”.

With `CCCc1nc(C)c2c(=O)[nH]c(-c3cc(S(=O)(=O)N4CCN(CC)CC4)ccc3OCC)nn12` [Vardenafil], the MFI in data set [2] (setting [6]) turned out to be 274; in data set [2] (All Cells, Vardenafil 0.001 μM), 260; in data set [2] (All Cells, Vardenafil 0.01 μM) it was 265; in data set [2] (All Cells, Vardenafil 0.1 μM), 311; in data set [2] (All Cells, Vardenafil 1 μM) it was 405; in data set [2] (All Cells, Vardenafil 10 μM) it was 747. Moreover, the MFI was determined as 1168 in data set [2] (All Cells, Vardenafil 100 μM); 313 in data set [2] (setting [7]); 291 in data set [2] (setting [8]); 304 in data set [2] (CD4+ Cells, Vardenafil 0.01 μM); 359 in data set [2] (CD4+ Cells, Vardenafil 0.1 μM); 482 in data set [2] (CD4+ Cells, Vardenafil 1 μM). Also, the MFI in data set [2] (CD4+ Cells, Vardenafil 10 μM) is on record as 930; in data set [2] (CD4+ Cells, Vardenafil 100 μM), 1367; in data set [2] (setting [9]), 166; in data set [2] (setting [10]), 166; in data set [2] (CD8+ Cells, Vardenafil 0.01 μM), 162; in data set [2] (CD8+ Cells, Vardenafil 0.1 μM), 171. Also, the MFI was found to be 186 in data set [2] (CD8+ Cells, Vardenafil 1 μM); 340 in data set [2] (CD8+ Cells, Vardenafil 10 μM); 620 in data set [2] (CD8+ Cells, Vardenafil 100 μM). Also, the SR in data set [2] (setting [6]) is on record as 1.31; in data set [2] (All Cells, Vardenafil 0.001 μM), 1.24; in data set [2] (All Cells, Vardenafil 0.01 μM) it was 1.27; in data set [2] (All Cells, Vardenafil 0.1 μM), 1.49; in data set [2] (All Cells, Vardenafil 1 μM), 1.94; in data set [2] (All Cells, Vardenafil 10 μM), 3.57. Moreover, the SR in data set [2] (All Cells, Vardenafil 100 μM) was 5.59; in data set [2] (setting [7]) it was 1.38; in data set [2] (setting [8]), 1.28; in data set [2] (CD4+ Cells, Vardenafil 0.01 μM), 1.34; in data set [2] (CD4+ Cells, Vardenafil 0.1 μM), 1.58; in data set [2] (CD4+ Cells, Vardenafil 1 μM), 2.12. In addition, the SR in data set [2] (CD4+ Cells, Vardenafil 10 μM) amounted to 4.10; in data set [2] (CD4+ Cells, Vardenafil 100 μM) it was 6.02; in data set [2] (setting [9]) it was 1.15; in data set [2] (setting [10]), 1.15; in data set [2] (CD8+ Cells, Vardenafil 0.01 μM), 1.13; in data set [2] (CD8+ Cells, Vardenafil 0.1 μM), 1.19. Besides, the SR in data set [2] (CD8+ Cells, Vardenafil 1 μM) is on record as 1.29; in data set [2] (CD8+ Cells, Vardenafil 10 μM), 2.36; in data set [2] (CD8+ Cells, Vardenafil 100 μM) it was 4.31.

In data set [3], “OT-001662 (Met; Linker (SG); ecDHFR (M1del, R12Y, Y100I); Histidine residue; CD40L; stop) (ligand)” registered an IFNg (pg/ml), 2-day co-culture of transduced T cells with mDC, DMSO (DRD not stabilised) of 3790 pg/mL; an IFNg (pg/ml), 2-day co-culture of transduced T cells with mDC, TMP (0.1 µM) of 7430 pg/mL; an IFNg (pg/ml), 2-day co-culture of transduced T cells with mDC, TMP (0.5 µM) of 3590 pg/mL; an IFNg (pg/ml), 2-day co-culture of transduced T cells with mDC, TMP (2 µM) of 16400 pg/mL. In data set [3], this molecule had an IFNg (pg/ml), 2-day co-culture of transduced T cells with mDC, TMP (10 µM) of 13500 pg/mL; an IL12 (pg/ml), 2-day co-culture of transduced T cells with mDC, DMSO (DRD not stabilised) of 0.254 pg/mL; an IL12 (pg/ml), 2-day co-culture of transduced T cells with mDC, TMP (0.1 µM) of 0.0705 pg/mL; an IL12 (pg/ml), 2-day co-culture of transduced T cells with mDC, TMP (2 µM) of 19.4 pg/mL. Besides, in data set [3], the IL12 (pg/ml), 2-day co-culture of transduced T cells with mDC, TMP (10 µM) was determined as 59.3 pg/mL; the SEAP reporter of HEK-Blue CD40 cells co-cultured 24 hours with transduced Jurkat cells plus 50 µM TMP, given as Soluble CD40L (pg/ml) against a recombinant soluble CD40L standard stood at 8660 pg/mL; the TNFa (pg/ml), 2-day co-culture of transduced T cells with mDC, DMSO (DRD not stabilised) is 82.3 pg/mL; the TNFa (pg/ml), 2-day co-culture of transduced T cells with mDC, TMP (0.1 µM) is 131 pg/mL. Further, in data set [3], the TNFa (pg/ml), 2-day co-culture of transduced T cells with mDC, TMP (0.5 µM) was found to be 83.9 pg/mL; the TNFa (pg/ml), 2-day co-culture of transduced T cells with mDC, TMP (2 µM) came out at 249 pg/mL; the TNFa (pg/ml), 2-day co-culture of transduced T cells with mDC, TMP (10 µM) was 251 pg/mL.

In the case of `Cc1c(-c2ccc(O)cc2)n(Cc2ccc(OCCN3CCCCCC3)cc2)c2ccc(O)cc12` [Bazidoxefene], the “Percent of cells expressing CD40L” value in data set [4] (Dose 0.0001 μM) is on record as 4.88%; in data set [4] (Dose 0.001 μM) it was 5.17%; in data set [4] (Dose 0.01 μM), 5.42%; in data set [4] (Dose 0.1 μM), 7.67%; in data set [4] (Dose 1 μM), 13.5%.

For the molecule `O=C(c1ccc(OCCN2CCCCC2)cc1)c1c(-c2ccc(O)cc2)sc2cc(O)ccc12` [Raloxifene], the “Percent of cells expressing CD40L” value in data set [4] (Dose 0.0001 μM) amounted to 4.67%; in data set [4] (Dose 0.001 μM) it was 5.01%; in data set [4] (Dose 0.01 μM), 5%; in data set [4] (Dose 0.1 μM) it was 5.18%; in data set [4] (Dose 1 μM), 7.1%.

B1: OT-001671: ecDHFR regulated construct that includes a CD40L protein resistant to cleavage (protein)
chain: MSGISLIAALAVDYVIGMENAMPWNLPADLAWFKRNTLNKPVIMGRHTWESIGRPLPGRKNIILSSQPGTDDRVTWVKSVDEAIAACGDVPEIMVIGGGRVIEQFLPKAQKLYLTHIDAEVEGDTHFPDYEPDDWESVFSEFHDADAQNSHSYCFEILERRHMIETYNQTSPRSAATGLPISMKIFMYLLTVFLITQMIGSALFAVYLHRRLDKIEDERNLHEDFVFMKTIQRCNTGERSLSLLNCEEIKSQFEGFVKDIMLNKEETKKENDQNPQIAAHVISEASSKTTSVLQWAEKGYYTMSNNLVTLENGKQLTVKRQGLYYIYAQVTFCSNREASSQAPFIASLCLKSPGRFERILLRAANTHSSAKPCGQQSIHLGGVFELQPGASVFVNVTDPSQVSHGTGFTSFGLLKL
As to B1, the “TMP-mediated regulation of CD40L expression” value in data set [5] was “TMP-mediated Regulation of CD40L expression was observed”.
